The target of experiment [1] is T1, MC receptors endogenous to Xenopus melanophores (Xenopus laevis, UniProt A0A1L8GF34).
T1 sequence (A0A1L8GF34 1-317): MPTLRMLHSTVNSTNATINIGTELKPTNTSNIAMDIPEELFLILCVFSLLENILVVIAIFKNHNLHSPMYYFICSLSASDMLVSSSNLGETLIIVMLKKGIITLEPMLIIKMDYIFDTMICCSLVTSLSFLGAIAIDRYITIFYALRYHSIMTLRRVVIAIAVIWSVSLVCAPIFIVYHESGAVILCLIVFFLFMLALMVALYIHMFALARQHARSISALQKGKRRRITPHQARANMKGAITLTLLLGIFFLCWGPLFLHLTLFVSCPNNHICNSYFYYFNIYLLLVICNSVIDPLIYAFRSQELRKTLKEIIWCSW
The settings on record: Quillan and Sadée 1997, cited from earlier work.

Experiment [2] concerns the target T2, ACTH (MCR-2) receptor endogenous to murine Y1 adrenocortical cells (Mus musculus, UniProt Q64326).
T2 construct: the ACTH (MCR-2) receptor endogenous to murine Y1 adrenocortical cells; endogenous in cells; host or cells: murine Y1 adrenocortical cells
As to the kind of experiment: cAMP concentration-response to ACTH-(1-24) in Y1 cells. In kind it is cell-based. The protocol: (§1) Peptide concentration-response measurements are made in HEK-293 cells by quantifying cAMP levels using a [8-^3H]-CAMP kit from Amersham. Briefly, cells transfected with MC receptors, plated to confluency in 96-well tissue culture plates, are rinsed for 1 hr with 70% (vol/vol) L-15 medium containing 0.5% bovine serum albumin. […] Cellular debris was separated from extracted samples by centrifugation, 400 μL aliquots of the supernatant lyophilized, and total cAMP content quantified by isotope counting.
(§2) Concentration response measurements were made also as described in Example 2, but in Xenopus fibroblasts, COS-7, HEK-293, and Y1 cells.

Experiment [3] concerns atypical MC receptor in Cos-7 cells. Description: cAMP concentration-response to α-MSH in Cos-7 cells. In kind it is cell-based. The protocol: as §1, §2
The next experiment deals with MCR-4 (Homo sapiens, UniProt P32245). The settings on record: Ollmann et al.; cited from earlier work.
Sequence of MCR-4 (P32245 whole entry): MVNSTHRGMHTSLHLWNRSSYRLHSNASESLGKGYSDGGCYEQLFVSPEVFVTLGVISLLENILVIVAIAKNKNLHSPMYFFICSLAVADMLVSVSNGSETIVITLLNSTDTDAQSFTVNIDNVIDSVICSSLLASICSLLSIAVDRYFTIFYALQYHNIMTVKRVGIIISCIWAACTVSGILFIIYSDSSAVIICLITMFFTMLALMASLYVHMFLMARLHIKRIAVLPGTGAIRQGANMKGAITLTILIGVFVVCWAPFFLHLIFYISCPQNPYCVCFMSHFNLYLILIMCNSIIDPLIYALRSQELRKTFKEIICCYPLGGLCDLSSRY
The next experiment concerns the target MCR-3 (Homo sapiens, UniProt P41968). The settings on record: Ollmann et al.; cited from earlier work.
Another experiment has as its target MCR-1 (Homo sapiens, UniProt Q01726). The note with it: at concentrations up to 100 nM; Ollmann et al.; cited from earlier work.
Experiment [4] relates to heat-induced edema in the anesthetized rat's paw. Description: Suppression of heat-induced edema in the anesthetized rat's paw (anti-inflammatory). In kind it is in vivo. The note with it: for anti-edema activity: in words; for Anti-Inflammatory ED50: suppression of heat-induced edema in the anesthetized rat's paw.
Experiment [5] relates to B16-F1 mouse melanoma cells. The note with it: Siegrist et al.; read-out: antiproliferative half-maximal effective concentration; cited from earlier work.

Square brackets hold non-standard residues; d marks the D form. Peptide text beside a SMILES is read from it. * marks the point of attachment. Benzoyl(3-OMe) = COc1cccc(C(=O)*)c1; Benzoyl(4-OMe) = COc1ccc(C(=O)*)cc1; d2Thi = N[C@H](Cc1cccs1)C(=O)O A value given as a limit tells only on which side of the number the result lay.

Broadly, the IC50 is the midpoint of a concentration-inhibition curve.

T2 sequence (Q64326 whole entry): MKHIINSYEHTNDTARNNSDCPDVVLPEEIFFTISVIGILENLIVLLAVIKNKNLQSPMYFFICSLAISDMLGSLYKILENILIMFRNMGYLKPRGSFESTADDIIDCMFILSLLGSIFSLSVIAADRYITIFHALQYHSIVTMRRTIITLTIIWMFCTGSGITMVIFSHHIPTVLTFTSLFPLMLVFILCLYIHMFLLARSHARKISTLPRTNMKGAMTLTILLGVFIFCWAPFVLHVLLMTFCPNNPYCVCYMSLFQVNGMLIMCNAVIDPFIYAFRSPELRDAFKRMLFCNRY
T2 sequence (Q9D159 whole entry partner): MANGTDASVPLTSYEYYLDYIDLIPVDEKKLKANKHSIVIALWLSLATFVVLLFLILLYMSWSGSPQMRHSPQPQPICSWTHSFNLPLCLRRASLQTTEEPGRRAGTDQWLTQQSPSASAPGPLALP
Sequence of MCR-1 (Q01726 whole entry): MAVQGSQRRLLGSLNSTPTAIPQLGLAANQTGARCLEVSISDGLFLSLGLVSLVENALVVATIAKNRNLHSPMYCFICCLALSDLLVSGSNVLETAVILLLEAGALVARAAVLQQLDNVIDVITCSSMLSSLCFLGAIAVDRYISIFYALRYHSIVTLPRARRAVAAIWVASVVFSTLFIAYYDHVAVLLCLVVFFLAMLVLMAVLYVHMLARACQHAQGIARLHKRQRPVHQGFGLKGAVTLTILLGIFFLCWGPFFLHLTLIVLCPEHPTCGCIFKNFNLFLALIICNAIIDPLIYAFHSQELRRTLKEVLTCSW
Sequence of MCR-3 (P41968 whole entry): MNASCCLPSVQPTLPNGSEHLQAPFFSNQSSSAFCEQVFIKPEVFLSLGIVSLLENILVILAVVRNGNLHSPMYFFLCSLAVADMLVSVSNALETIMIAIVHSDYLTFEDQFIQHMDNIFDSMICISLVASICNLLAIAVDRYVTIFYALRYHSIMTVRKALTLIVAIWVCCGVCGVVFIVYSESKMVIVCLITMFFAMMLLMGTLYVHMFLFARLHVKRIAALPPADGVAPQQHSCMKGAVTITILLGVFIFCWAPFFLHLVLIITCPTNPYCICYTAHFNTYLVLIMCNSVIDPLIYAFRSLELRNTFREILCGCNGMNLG

As for Dynorphin A(6-17), the antagonist activity entry in experiment [1] was “inactive”. Turning to α-MSH, the “stimulating cAMP accumulation in Y1 cells” value in experiment [2] (up to concentrations of 10 μM) was “not effective”. Further, the EC50 in experiment [3] (read-out: EC50 of α-MSH for cAMP production) was roughly 0.08 µM. Turning to “agouti-related protein (ARP): agouti-related protein cloned from non-epidermal tissues (SSRRCVRLHESCLGQQVPCCDPCATCYCRFFNAFCYCRKLGTAMNPCSRT; UniProt O00253 83-132, looked up)”, the “inhibition for MCR-4” value in the experiment with MCR-4 is “dose dependent inhibition”. Besides, the “inhibition for MCR-3” value with MCR-3 is “dose dependent inhibition”. Moreover, the “effect on MCR-1” value with MCR-1 is “little effect”. Regarding `CC[C@H](C)[C@H](NC(=O)[C@H](CCCNC(=N)N)NC(=O)[C@H](CCCNC(=N)N)NC(=O)[C@H](CC(C)C)NC(=O)[C@H](Cc1ccccc1)NC(=O)CNC(=O)CNC(=O)[C@@H](N)Cc1ccc(O)cc1)C(=O)N[C@@H](CCCNC(=N)N)C(=O)N1CCC[C@H]1C(=O)N[C@@H](CCCCN)C(=O)N[C@@H](CC(C)C)C(=O)N[C@@H](CCCCN)C(N)=O` [dynorphin A(1-13)-NH2], the “effect on basal or forskolin (3 μM) stimulated cAMP production” value in experiment [2] (Y1 cells) is “did not significantly affect”. Besides, the “shift of the concentration-response curve of ACTH-(1-24) to the right” value in experiment [2] (Y1 cells, 30 μM) was roughly 200 fold. Moreover, in experiment [2] (from shift in the ACTH concentration-response curve), the “estimated Kd” value is listed as “submicromolar range”. Also, the “shift of α-MSH EC50” value in experiment [3] (30 μM) was roughly 50 fold. Besides, in experiment [3] (read-out: K4), the Kd is roughly 1 µM. In the case of Dynorphin A(2-17) [reference compound], the half-inhibitory concentration (IC50) in experiment [1] (against 600 pM α-MSH) was 0.19 µM. Moreover, the anti-edema activity result in experiment [4] was “at least twice more active”. As for `CC[C@H](C)[C@H](NC(=O)[C@H](CCCNC(=N)N)NC(=O)[C@H](CCCNC(=N)N)NC(=O)c1cccc(OC)c1)C(=O)N[C@@H](CCCNC(=N)N)C(=O)N[C@@H](C)C(=O)N[C@@H](CCCCN)C(=O)N[C@@H](CC(C)C)C(N)=O` [SQW-11, m-anisoyl-Arg-Arg-Ile-Arg-Ala-Lys-Leu-amide] ({Benzoyl(3-OMe)}-RRIRAKL-NH2), the “Anti-Inflammatory ED50” value in experiment [4] (i) is 1.05 µmol/kg. Same read-out and setting: the same measure for `COc1cccc(C(=O)N[C@@H](CCCNC(=N)N)C(=O)N[C@@H](CCCNC(=N)N)C(=O)N[C@@H](C)C(=O)N[C@@H](CCCNC(=N)N)C(=O)N2CCC[C@H]2C(=O)N[C@@H](CCCCN)C(=O)N[C@@H](CC(C)C)C(N)=O)c1` [SQW-9, m-anisoyl-Arg-Arg-Ala-Arg-Pro-Lys-Leu-amide] ({Benzoyl(3-OMe)}-RRARPKL-NH2): 0.65 µmol/kg. Regarding `CC[C@H](C)[C@H](NC(=O)[C@@H](C)NC(=O)[C@H](CC(C)C)NC(=O)[C@H](CC(C)C)NC(=O)[C@H](CCCCN)NC(=O)[C@H](CCCNC(=N)N)NC(=O)c1ccc(OC)cc1)C(=O)N[C@H](CC(C)C)C(N)=O` [S-164, p-anisoyl-Arg-Lys-Leu-Leu-D-Ala-Ile-D-Leu-NH2] ({Benzoyl(4-OMe)}-RKLL[dA]I[dL]-NH2), the “Anti-Inflammatory ED50” value in experiment [4] (i.v.) is 0.42 (0.18-0.96) mg/kg. With `CC[C@H](C)[C@H](NC(=O)[C@H](CCCNC(=N)N)NC(=O)[C@H](CCCNC(=N)N)NC(=O)c1cccc(OC)c1)C(=O)N[C@@H](CCCNC(=N)N)C(=O)N1CCC[C@H]1C(=O)N[C@@H](C)C(=O)N[C@@H](CC(C)C)C(N)=O` [SQW-12, m-anisoyl-Arg-Arg-Ile-Arg-Pro-Ala-Leu-amide] ({Benzoyl(3-OMe)}-RRIRPAL-NH2), the “Anti-Inflammatory ED50” value in experiment [4] (i) was found to be 0.98 µmol/kg. On to `CC[C@H](C)[C@H](NC(=O)[C@H](CCCNC(=N)N)NC(=O)[C@H](CCCNC(=N)N)NC(=O)c1ccc(OC)cc1)C(=O)N[C@H](CCCNC(=N)N)C(=O)N1CCC[C@H]1C(=O)N[C@H](CCCCN)C(=O)N[C@H](CC(C)C)C(N)=O` [SQW-2, p-anisoyl-Arg-Arg-Ile-D-Arg-Pro-D-Lys-D-Leu-amide] ({Benzoyl(4-OMe)}-RRI[dR]P[dK][dL]-NH2), for which the “Anti-Inflammatory ED50” value in experiment [4] (i) was 0.085 µmol/kg. As for `CC[C@H](C)[C@H](NC(=O)[C@@H](Cc1cccs1)NC(=O)[C@H](CC(C)C)NC(=O)[C@H](CC(C)C)NC(=O)[C@H](CCCCN)NC(=O)[C@H](C)NC(=O)c1ccc(OC)cc1)C(=O)N[C@H](CC(C)C)C(N)=O` [S-167, p-anisoyl-Ala-Lys-Leu-Leu-D-Thi-Ile-D-Leu-NH2] ({Benzoyl(4-OMe)}-AKLL[d2Thi]I[dL]-NH2), the “Anti-Inflammatory ED50” value in experiment [4] (i.v.) was greater than 2 mg/kg. With `CC[C@H](C)[C@H](NC(=O)[C@@H](CCCNC(=N)N)NC(=O)[C@@H](CCCNC(=N)N)NC(=O)c1ccc(OC)cc1)C(=O)N[C@H](CCCNC(=N)N)C(=O)N1CCC[C@H]1C(=O)N[C@H](CCCCN)C(=O)N[C@H](CC(C)C)C(N)=O` [SQW-4, p-anisoyl-D-Arg-D-Arg-Ile-D-Arg-Pro-D-Lys-D-Leu-amide] ({Benzoyl(4-OMe)}-[dR][dR]I[dR]P[dK][dL]-NH2), in experiment [4], the anti-edema activity result is reported as “active as anti-edema agents”. Besides, in experiment [4] (i), the “Anti-Inflammatory ED50” value turned out to be 0.200 µmol/kg. As to `CC[C@H](C)[C@H](NC(=O)[C@@H](Cc1cccs1)NC(=O)[C@H](CC(C)C)NC(=O)[C@H](CC(C)C)NC(=O)[C@H](CCCCN)NC(=O)[C@H](C)NC(=O)c1ccc(OC)cc1)C(=O)N[C@H](CC(C)C)C(N)=O` [S-118, p-anisoyl-Ala-Lys-Leu-Leu-D-Thi-Ile-D-Leu-NH2] ({Benzoyl(4-OMe)}-AKLL[d2Thi]I[dL]-NH2), the “Anti-Inflammatory ED50” value in experiment [4] (i.v.) is listed as 0.035 (0.012-0.10) mg/kg.

B1: ASP: agouti-signaling protein, MCR antagonist elaborated by hair follicle melanocytes (protein, UniProt P42127 23-132, looked up)
Agouti-signaling protein: HLPPEEKLRDDRSLRSNSSVNLLDVPSVSIVALNKKSKQIGRKAAEKKRSSKKEASMKKVVRPRTPLSAPCVATRNSCKPPAPACCDPCASCQCRFFRSACSCRVLSLNC
Regarding B1, in experiment [5], the EC50 is 0.013 µM.

Values taken from patent US6953779B2, “Melanocortin receptor antagonists and modulations of melanocortin receptor activity” (The Regents of the University of California, priority 1998, dated 2005).
